# Tested on: rats
# Assay type: in vivo, rat
# Details: positive control; versus mean on baseline days
# Procedure: The standard test in rat to measure anxiolytic effect (Geller conflict procedure) was designed by Geller and Seifter and modified by Pollard and Howard (Geller & Seifter, Psychophamracologia 1:482-492 (1960: Pollard & Howard, Psychopharmacology 62:117-121 (1979)). The anxiety-reducing effect of a KCNQ2/3 channel opener was measured using the Geller conflict procedure in rats. Rats are trained to press a lever to receive food pellets during daily 1 hour sessions. The sessions are divided into punished and unpunished phases. During the four, three-minute punished periods, a light signals that each lever press will produce both a pellet and a foot shock (punishment), which reduces lever pressing. The number of punished lever presses on test days (when test compound is administered) is compared to the mean on baseline days. […]
compound,measurement,value
CNC1=Nc2ccc(Cl)cc2C(c2ccccc2)=[N+]([O-])C1 [chlordiazepoxide],increase in punished lever pressing,> 50%

# Reference: US20020013349A1, “Methods for treating or preventing pain and anxiety” (priority 1999, published 2002)
